These compounds were tested against T1, human chymase (Homo sapiens, UniProt P23946) (assay: Chymase inhibitory activity (Suc-Ala-Ala-Pro-Phe-pNA substrate, absorption 405 nm)). Settings: purified human chymase, 30 minutes at 37 °C preincubation, substrate 0.5 mM.
T1 sequence (P23946 22-247): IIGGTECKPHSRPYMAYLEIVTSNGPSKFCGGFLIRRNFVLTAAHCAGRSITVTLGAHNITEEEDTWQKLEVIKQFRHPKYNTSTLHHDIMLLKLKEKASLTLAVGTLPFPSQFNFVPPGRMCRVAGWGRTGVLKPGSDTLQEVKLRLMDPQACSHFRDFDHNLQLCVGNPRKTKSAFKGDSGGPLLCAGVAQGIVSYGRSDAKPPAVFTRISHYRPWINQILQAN
Type: biochemical
Experimental: Compound (I) was dissolved in dimethylsulfoxide (DMSO) at 10^-2 M. Concentration of DMSO for activity measurement was 1 %.
Compound (I) dissolved in DMSO and purified human chymase (Takai et al., Clinica Chimica Acta 265, 1997, 13-20) were added to a buffer (0.1M Tris-HCl, 1.8M NaCl pH8.0). After the mixture was treated for 30 minutes at 37 °C, Suc-Ala-Ala-Pro-Phe-pNA (BACHEM Feinchemikalien AG) was added at 0.5 mM as a substrate and the mixture was enzymatically reacted at 37 °C.
After the reaction, the absorption intensity (405 nm) of the solution was measured to calculate the inhibitory rate.

Compound	IC50 [nM]
CC(OC(=O)c1ccc(O[C@@H]2[C@H](Cc3ccccc3)C(=O)N2C(=O)N[C@H](C)c2ccccc2)cc1)c1ccccc1 (some centres unmarked) [Compound I-71]	19
COc1ccccc1C[C@@H]1C(=O)N(C(=O)N[C@@H](C)c2ccccc2)[C@@H]1Oc1ccc(C(=O)O)cc1 [Compound I-130]	1.18
C[C@@H](NC(=O)N1C(=O)[C@@H](Cc2ccccc2)[C@@H]1Sc1ccc(C(=O)O)cc1)c1ccccc1 [Compound I-57]	24

The remaining lines, values ahead:

IC50 [nM]	Compound
5.7	C[C@@H](NC(=O)N1C(=O)[C@@H](Cc2ccccc2)[C@@H]1Sc1ccc(C(=O)N2CCN(C)CC2)cc1)c1ccccc1 [Compound I-58]
2.95	C[C@@H](NC(=O)N1C(=O)[C@@H](Cc2ccccc2)[C@@H]1Oc1cccc(C(=O)N2CCN(C)CC2)c1)c1ccccc1 [Compound I-56]

Source: patent publication EP1099690A1, “MONOCYCLIC $g(b)-LACTAM COMPOUNDS AND CHYMASE INHIBITORS CONTAINING THE SAME” (SHIONOGI & CO., LTD., priority 1998, dated 2000)
